From patent publication US6437143B1, “Thiazolidone-2 derivatives, 4-diketone substituted, method for obtaining them and pharmaceutical compositions containing same” (Merck Patent Gesellschaft mit beschrankter Haftung, priority 1996, dated 2002) come the findings set out here.

Read-outs that look alike come from different tables or passages of the source.

Data set [1] concerns non-insulin-dependent diabetes induced in rats by Streptozotocin. Description: Antidiabetic activity by the oral route in the nOSTZ rat model of non-insulin-dependent diabetes. Format: in vivo. Particulars: 96 h, nOSTZ diabetic rats; for change in vivo at 20 mg/kg: 20 mg/kg/4d; for change in vivo at 200 mg/kg: 200 mg/kg/4d. The protocol:
To determine an antidiabetic activity by the oral route on an experimental model of non-insulin-dependent diabetes induced in rats by Streptozotocin.
The non-insulin-dependent diabetes model is obtained in rats by a neonatal injection (on the day of birth) of Streptozotocin.
The diabetic rats used are 8 weeks old.
The animals are kept, from the day of their birth to the day of the experiment, in an animal house at a regulated temperature of 21 to 22° C., and subjected to a fixed cycle of light (from 7.00 h to 19.00 h) and of darkness (from 19.00 h to 7.00 h). Their diet consisted of a maintenance diet; water and food were provided “ad libitum”, with the exception of the 2 hours of fasting preceding the tests where food is withdrawn.
On the day of the experiment, the rats are treated orally with the test product, and then 90′ later, are anaesthetized with Nembutal. 2 hours after the administration of the product, a 500-μl blood sample is collected from the tail.
The blood is collected over Heparin. All the tubes are placed on ice at the time the samples are collected. These are then centrifuged for 10 minutes at 3000 revolutions/minute to separate the organized elements as rapidly as possible.
The plasma obtained is distributed into 2 aliquots: one for the assay of glycaemia and lactatamia; these assays are carried out immediately the other for the assay of insulinaemia—is stored in the freezer at −20° C. up to the day of the assay They are determined by the glucose oxydase and lactate oxydase technique (Eppendorf Ebio 6666) The plasma insulin is assayed by a radio-immunological method

`COCCc1ccc(OCCC2SC(=O)NC2=O)cc1` (centres unmarked) [Compound 20] yielded a melting point of 101 to 103 °C. Further, in data set [1] (read-out: % Glycaemia), the change in vivo at 20 mg/kg is -10% and the change in vivo at 200 mg/kg is -14%.
Take `O=C1NC(=O)C(CCOc2ccc(F)cc2)S1` (centres unmarked) [Compound 2, 5-[2-(4-fluorophenoxy)ethyl]-2,4-thiazolidinedione]: the melting point lay within 94 to 96 °C. In addition, in data set [1] (read-out: % Glycaemia), the change in vivo at 20 mg/kg was -2% and the change in vivo at 200 mg/kg was -19%. For the same compound, in data set [1] (read-out: % Insulinaemia), the change in vivo at 20 mg/kg was -1% and the change in vivo at 200 mg/kg was -27%.
The compound `Cc1ccc(OCCC2SC(=O)NC2=O)cc1` (centres unmarked) [Compound 8] came in with a melting point of 119 to 121 °C. In data set [1] (read-out: % Glycaemia), the change in vivo at 20 mg/kg is -3% and the change in vivo at 200 mg/kg was -9%. Further, in data set [1] (read-out: % Insulinaemia), the change in vivo at 20 mg/kg was -30% and the change in vivo at 200 mg/kg was -26%.
`O=C1NC(=O)C(CCOc2cccc3ccccc23)S1` (centres unmarked) [Compound 11] came in with a melting point of 185 to 187 °C. Besides, in data set [1] (read-out: % Glycaemia), the change in vivo at 20 mg/kg is -12% and the change in vivo at 200 mg/kg is -21%. Also, in data set [1] (read-out: % Insulinaemia), the change in vivo at 20 mg/kg is -31% and the change in vivo at 200 mg/kg is -23%.
For `O=C1NC(=O)C(CC2COc3ccccc3O2)S1` (centres unmarked) [Compound 7] the same measures were 145 °C, 1%, -10%, 6% and -47%.
Taken in the same sequence, the figures for `O=C1NC(=O)C(CC(O)COc2ccc(F)cc2)S1` (centres unmarked) [Compound 17, 5-{[2-hydroxy-3-(4-fluorophenoxy)]propyl}-2,4-thiazolidinedione] were 96 to 98 °C, -20%, -7%, 4% and -5%.
For `O=C1NC(=O)C(CCOc2ccc(Cl)cc2)S1` (centres unmarked) [Compound 4] the same measures were 116 to 118 °C, -3%, -17%, -35% and -33%.
As for `N#Cc1ccc(OCCC2SC(=O)NC2=O)cc1` (centres unmarked) [Compound 6, 5-[2-(4-cyanophenoxy)ethyl]-2,4-thiazolidinedione], the change in vivo at 20 mg/kg in data set [1] (read-out: % Glycaemia) is -20%; in data set [1] (read-out: % Insulinaemia), 0%. The change in vivo at 200 mg/kg in data set [1] (read-out: % Glycaemia) was -26%; in data set [1] (read-out: % Insulinaemia), -49%.
For `O=C1NC(=O)C(CCOc2ccc3ccccc3c2)S1` (centres unmarked) [Compound 15], the melting point came out at 133 °C. Besides, in data set [1] (read-out: % Glycaemia), the change in vivo at 20 mg/kg is -14% and the change in vivo at 200 mg/kg is -22%. In data set [1] (read-out: % Insulinaemia), the change in vivo at 20 mg/kg was -9% and the change in vivo at 200 mg/kg was -12%.
Regarding `O=C1NC(=O)C(CCOc2cccc(F)c2)S1` (centres unmarked) [Compound 13], the melting point turned out to be 87 °C. In data set [1] (read-out: % Glycaemia), the change in vivo at 20 mg/kg is -14% and the change in vivo at 200 mg/kg is -2%.
As for `O=C1NC(=O)C(C(O)COc2ccc(F)cc2)S1` (centres unmarked) [Compound 16, 5-{[1-hydroxy-2-(4-fluorophenoxy)]ethyl}-2,4-thiazolidinedione], the melting point lay in the range of 131 to 133 °C. In data set [1] (read-out: % Glycaemia), the change in vivo at 20 mg/kg was -6% and the change in vivo at 200 mg/kg is -22%. In data set [1] (read-out: % Insulinaemia), the change in vivo at 20 mg/kg is -12% and the change in vivo at 200 mg/kg was 0%.
`O=C1NC(=O)C(CCCCCOc2ccc(F)cc2)S1` (centres unmarked) [Compound 10] came in with a melting point of 98 to 100 °C. Also, in data set [1] (read-out: % Glycaemia), the change in vivo at 20 mg/kg was -1% and the change in vivo at 200 mg/kg is -9%. In addition, in data set [1] (read-out: % Insulinaemia), the change in vivo at 20 mg/kg is -12% and the change in vivo at 200 mg/kg was -48%.
Taken in the same sequence, the figures for `O=C1NC(=O)C(CCOc2ccccc2F)S1` (centres unmarked) [Compound 14] were 138 °C, -4%, -7%, -23% and -51%.
Taken in the same sequence, the figures for `CC(COc1ccccc1)C1SC(=O)NC1=O` (centres unmarked) [Compound 19, 5-[1-methyl-2-phenoxyethyl]-2,4-thiazolidinedione] were 106 to 108 °C, -6%, -20%, 2% and -10%.
In the case of `O=C1NC(=O)C(CCOc2ccc(C(=O)O)cc2)S1` (centres unmarked) [Compound 21], the melting point was 234 to 236 °C. In data set [1] (read-out: % Glycaemia), the change in vivo at 20 mg/kg was -1% and the change in vivo at 200 mg/kg is -9%.
Take `Cc1ccc(C)c(OCCC2SC(=O)NC2=O)c1` (centres unmarked) [Compound 18]: in data set [1] (read-out: % Glycaemia), the change in vivo at 20 mg/kg was -8% and the change in vivo at 200 mg/kg was -9%. Also, in data set [1] (read-out: % Insulinaemia), the change in vivo at 20 mg/kg is -4% and the change in vivo at 200 mg/kg was -17%.
Turning to `Cc1ccc(C)c(OCCC2SC(=O)NC2=O)c1` (centres unmarked) (hydrate or solvate) [Compound 18], the melting point lay within 134 to 136 °C.
In the case of `O=C1NC(=O)C(CCOc2ccc(Br)cc2)S1` (centres unmarked) [Compound 5], the melting point lay within 104 to 106 °C. Also, in data set [1] (read-out: % Glycaemia), the change in vivo at 20 mg/kg was -10% and the change in vivo at 200 mg/kg was -23%. In addition, in data set [1] (read-out: % Insulinaemia), the change in vivo at 20 mg/kg was -9% and the change in vivo at 200 mg/kg was -62%.
`O=C1NC(=O)C(CCOc2ccccc2)S1` (centres unmarked) [Compound 1, 5-(2-phenoxyethyl)-2,4-thiazolidinedione]: in data set [1] (read-out: % Glycaemia), the change in vivo at 20 mg/kg is -15% and the change in vivo at 200 mg/kg is -26%.
For the compound `O=C1NC(=O)C(CCCCCCOc2ccc(Cl)cc2)S1` (centres unmarked) [Compound 9], the melting point was in the range of 68 to 70 °C. In addition, in data set [1] (read-out: % Glycaemia), the change in vivo at 20 mg/kg came to 10% and the change in vivo at 200 mg/kg is -16%. In data set [1] (read-out: % Insulinaemia), the change in vivo at 20 mg/kg is -15% and the change in vivo at 200 mg/kg was -30%.
Turning to `O=C1NC(=O)C(C(COc2ccc(F)cc2)c2ccccc2)S1` (centres unmarked) [Compound 12], the melting point is 121 °C. For the same compound, in data set [1] (read-out: % Glycaemia), the change in vivo at 20 mg/kg was -6% and the change in vivo at 200 mg/kg was -6%. In addition, in data set [1] (read-out: % Insulinaemia), the change in vivo at 20 mg/kg was -35% and the change in vivo at 200 mg/kg is -56%.
`O=C1NC(=O)C(CCCOc2ccc(F)cc2)S1` (centres unmarked) [Compound 3, 5-[3-(4-fluorophenoxy)propyl]-2,4-thiazolidinedione]: the melting point was in the range of 121 to 123 °C. In data set [1] (read-out: % Glycaemia), the change in vivo at 20 mg/kg was -17% and the change in vivo at 200 mg/kg is -17%. In addition, in data set [1] (read-out: % Insulinaemia), the change in vivo at 20 mg/kg came to 1% and the change in vivo at 200 mg/kg is -37%.
